This passage reports Emax and DC50 results from patent US20230002367A1, “BIFUNCTIONAL COMPOUNDS” (Hoffmann-La Roche Inc., priority 2019, published 2023).

The target in the assay is T1, SMARCA2 (Homo sapiens, UniProt P51531).
T1 construct: endogenous in cells
As to the kind of experiment: SMARCA2 HiBiT degradation assay (cellular). The class given is cell-based. To be noted: for Emax: A549, Emax = amount of residual protein remaining in the cell following compound treatment; for DC50: SMARCA2 HiBiT cells, luminescence readout, 11-point titration from 10 μM, 6 hours or 16 hours, read-out: HiBit A549 SMARCA2 IP.

T1 sequence (P51531 whole entry): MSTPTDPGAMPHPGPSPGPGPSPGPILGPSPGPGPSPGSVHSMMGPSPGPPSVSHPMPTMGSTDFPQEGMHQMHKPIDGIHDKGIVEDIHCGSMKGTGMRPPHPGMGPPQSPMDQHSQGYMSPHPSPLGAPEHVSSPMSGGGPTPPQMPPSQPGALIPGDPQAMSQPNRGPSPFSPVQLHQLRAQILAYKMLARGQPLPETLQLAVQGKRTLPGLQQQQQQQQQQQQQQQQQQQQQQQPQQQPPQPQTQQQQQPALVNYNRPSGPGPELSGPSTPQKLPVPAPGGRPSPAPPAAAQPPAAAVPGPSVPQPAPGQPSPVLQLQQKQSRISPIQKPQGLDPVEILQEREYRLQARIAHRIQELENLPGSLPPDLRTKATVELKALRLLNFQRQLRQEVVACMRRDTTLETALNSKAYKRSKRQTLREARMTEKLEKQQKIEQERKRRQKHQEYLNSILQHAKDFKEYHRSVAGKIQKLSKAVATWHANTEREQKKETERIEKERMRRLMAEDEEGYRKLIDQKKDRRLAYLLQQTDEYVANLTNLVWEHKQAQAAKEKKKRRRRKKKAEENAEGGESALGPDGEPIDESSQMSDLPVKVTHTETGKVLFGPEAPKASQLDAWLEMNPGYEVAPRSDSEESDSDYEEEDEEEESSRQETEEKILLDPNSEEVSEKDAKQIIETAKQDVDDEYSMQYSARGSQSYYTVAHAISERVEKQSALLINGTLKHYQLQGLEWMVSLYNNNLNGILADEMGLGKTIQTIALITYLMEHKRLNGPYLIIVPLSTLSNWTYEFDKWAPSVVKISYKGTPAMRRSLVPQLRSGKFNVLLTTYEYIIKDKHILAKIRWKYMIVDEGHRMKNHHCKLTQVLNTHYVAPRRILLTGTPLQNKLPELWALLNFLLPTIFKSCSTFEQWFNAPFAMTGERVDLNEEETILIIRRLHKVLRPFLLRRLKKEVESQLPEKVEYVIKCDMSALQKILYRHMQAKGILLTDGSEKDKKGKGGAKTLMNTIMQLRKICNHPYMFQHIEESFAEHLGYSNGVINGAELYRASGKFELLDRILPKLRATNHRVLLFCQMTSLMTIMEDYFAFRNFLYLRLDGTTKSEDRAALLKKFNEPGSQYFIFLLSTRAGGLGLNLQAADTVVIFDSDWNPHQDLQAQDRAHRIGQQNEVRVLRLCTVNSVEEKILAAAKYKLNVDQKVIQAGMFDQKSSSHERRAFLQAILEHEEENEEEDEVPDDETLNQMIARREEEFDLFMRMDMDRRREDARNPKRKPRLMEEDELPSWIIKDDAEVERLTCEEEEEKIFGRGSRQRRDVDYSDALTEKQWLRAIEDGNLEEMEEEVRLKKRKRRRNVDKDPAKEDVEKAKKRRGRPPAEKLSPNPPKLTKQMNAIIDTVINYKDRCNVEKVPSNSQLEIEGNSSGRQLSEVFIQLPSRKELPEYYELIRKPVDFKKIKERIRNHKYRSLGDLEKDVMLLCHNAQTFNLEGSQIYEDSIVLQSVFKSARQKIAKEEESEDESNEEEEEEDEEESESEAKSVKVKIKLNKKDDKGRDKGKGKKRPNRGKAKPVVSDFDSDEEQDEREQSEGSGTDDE

In the case of `Cc1ncsc1-c1ccc(CNC(=O)[C@@H]2C[C@@H](O)CN2C(=O)[C@@H](NC(=O)CCCCCCCCC(=O)N2CCOC3(CCN(c4cc(-c5ccccc5O)nnc4N)CC3)C2)C(C)(C)C)cc1` [Example 12, (2S,4R)-1-[(2S)-2-[[10-[9-[3-amino-6-(2-hydroxyphenyl)pyridazin-4-yl]-1-oxa-4,9-diazaspiro[5.5]undecan-4-yl]-10-oxo-decanoyl]amino]-3,3-dimethyl-butanoyl]-4-hydroxy-N-[[4-(4-methylthiazol-5-yl)phenyl]methyl]pyrrolidine-2-carboxamide], the Emax worked out at 43% and the DC50 came out at 2460 nM.

`Cc1ncsc1-c1ccc(CNC(=O)[C@@H]2C[C@H](O)CN2C(=O)[C@@H](NC(=O)CCCCCCCC(=O)N2CCC(Cc3cccc(N4C5CCC4CN(c4cc(-c6ccccc6O)nnc4N)C5)c3)CC2)C(C)(C)C)cc1` [Example 13, (2S,4S)-1-[(2S)-2-[[9-[4-[[3-[3-[3-amino-6-(2-hydroxyphenyl)pyridazin-4-yl]-3,8-diazabicyclo[3.2.1]octan-8-yl]phenyl]methyl]-1-piperidyl]-9-oxo-nonanoyl]amino]-3,3-dimethyl-butanoyl]-4-hydroxy-N-[[4-(4-methylthiazol-5-yl)phenyl]methyl]pyrrolidine-2-carboxamide]: the Emax is 28% and the DC50 came out at 954 nM.

Take `Cc1ncsc1-c1ccc(CNC(=O)[C@@H]2C[C@H](O)CN2C(=O)[C@@H](NC(=O)CCCCCC(=O)N2CCC(Cc3cccc(N4C5CCC4CN(c4cc(-c6ccccc6O)nnc4N)C5)c3)CC2)C(C)(C)C)cc1` [Example 14, (2S,4S)-1-[(2S)-2-[[7-[4-[[3-[3-[3-amino-6-(2-hydroxyphenyl)pyridazin-4-yl]-3,8-diazabicyclo[3.2.1]octan-8-yl]phenyl]methyl]-1-piperidyl]-7-oxo-heptanoyl]amino]-3,3-dimethyl-butanoyl]-4-hydroxy-N-[[4-(4-methylthiazol-5-yl)phenyl]methyl]pyrrolidine-2-carboxamide]: the Emax is 38% and the DC50 came to 995 nM.

For the compound `Cc1ncsc1-c1ccc(CNC(=O)[C@@H]2C[C@H](O)CN2C(=O)[C@@H](NC(=O)CCCCCCCCCC(=O)N2CCC(Cc3cccc(N4C5CCC4CN(c4cc(-c6ccccc6O)nnc4N)C5)c3)CC2)C(C)(C)C)cc1` [Example 15, (2S,4S)-1-[(2S)-2-[[11-[4-[[3-[3-[3-amino-6-(2-hydroxyphenyl)pyridazin-4-yl]-3,8-diazabicyclo[3.2.1]octan-8-yl]phenyl]methyl]-1-piperidyl]-11-oxo-undecanoyl]amino]-3,3-dimethyl-butanoyl]-4-hydroxy-N-[[4-(4-methylthiazol-5-yl)phenyl]methyl]pyrrolidine-2-carboxamide], the Emax is 24% and the DC50 was found to be 487 nM.

In the case of `Cc1ncsc1-c1ccc(CNC(=O)[C@@H]2C[C@@H](O)CN2C(=O)[C@@H](NC(=O)CCCCCCCCC(=O)N2CCN(c3cc(-c4ccccc4O)nnc3N)CC23CC3)C(C)(C)C)cc1` [Example 16, (2S,4R)-1-[(2S)-2-[[10-[7-[3-amino-6-(2-hydroxyphenyl)pyridazin-4-yl]-4,7-diazaspiro[2.5]octan-4-yl]-10-oxo-decanoyl]amino]-3,3-dimethyl-butanoyl]-4-hydroxy-N-[[4-(4-methylthiazol-5-yl)phenyl]methyl]pyrrolidine-2-carboxamide], the maximal response (Emax) was 33% and the DC50 came out at 872 nM.

Regarding `Cc1ncsc1-c1ccc(CNC(=O)[C@@H]2C[C@@H](O)CN2C(=O)[C@@H](NC(=O)CCCCCCCCC(=O)N2CC=C(c3cc(-c4ccccc4O)nnc3N)CC2)C(C)(C)C)cc1` [Example 17, (2S,4R)-1-[(2S)-2-[[10-[4-[3-amino-6-(2-hydroxyphenyl)pyridazin-4-yl]-3,6-dihydro-2H-pyridin-1-yl]-10-oxo-decanoyl]amino]-3,3-dimethyl-butanoyl]-4-hydroxy-N-[[4-(4-methylthiazol-5-yl)phenyl]methyl]pyrrolidine-2-carboxamide], the Emax is 50% and the DC50 stood at 2820 nM.

In the case of `Cc1ncsc1-c1ccc(CNC(=O)[C@@H]2C[C@@H](O)CN2C(=O)[C@@H](NC(=O)CCCCCCCCCC(=O)N2CCN(C(=O)c3cccc(CN4C5CCC4CN(c4cc(-c6ccccc6O)nnc4N)C5)c3)CC2)C(C)(C)C)cc1` [Example 18, (2S,4R)-1-[(2S)-2-[[11-[4-[3-[[3-[3-amino-6-(2-hydroxyphenyl)pyridazin-4-yl]-3,8-diazabicyclo[3.2.1]octan-8-yl]methyl]benzoyl]piperazin-1-yl]-11-oxo-undecanoyl]amino]-3,3-dimethyl-butanoyl]-4-hydroxy-N-[[4-(4-methylthiazol-5-yl)phenyl]methyl]pyrrolidine-2-carboxamide], the Emax was determined as 63% and the DC50 was 848 nM.

Regarding `Cc1ncsc1-c1ccc(CNC(=O)[C@@H]2C[C@@H](O)CN2C(=O)[C@@H](NC(=O)CCCCCCCCC(=O)N2C3CCCC2CN(c2cc(-c4ccccc4O)nnc2N)C3)C(C)(C)C)cc1` [Example 19, (2S,4R)-1-[(2S)-2-[[10-[3-[3-Amino-6-(2-hydroxyphenyl)pyridazin-4-yl]-3,9-diazabicyclo[3.3.1]nonan-9-yl]-10-oxo-decanoyl]amino]-3,3-dimethyl-butanoyl]-4-hydroxy-N-[[4-(4-methylthiazol-5-yl)phenyl]methyl]pyrrolidine-2-carboxamide], the Emax is 18% and the DC50 worked out at 754 nM.

In the case of `Cc1ncsc1-c1ccc(CNC(=O)[C@@H]2C[C@@H](O)CN2C(=O)[C@H](NC(=O)CCCCCCCCCOc2cccc(N3C4CCC3CN(c3cc(-c5ccccc5O)nnc3N)C4)c2)C(C)(C)C)cc1` [Example 20, (2S,4R)-1-[(2R)-2-[10-[3-[3-[3-amino-6-(2-hydroxyphenyl)pyridazin-4-yl]-3,8-diazabicyclo[3.2.1]octan-8-yl]phenoxy]decanoylamino]-3,3-dimethyl-butanoyl]-4-hydroxy-N-[[4-(4-methylthiazol-5-yl)phenyl]methyl]pyrrolidine-2-carboxamide], the Emax amounted to 33% and the DC50 was 313 nM.

For `Cc1ncsc1-c1ccc(CNC(=O)[C@@H]2C[C@@H](O)CN2C(=O)[C@@H](NC(=O)CCCCCCCCC(=O)N2CCN(Cc3cccc(CN4C5CCC4CN(c4cc(-c6ccccc6O)nnc4N)C5)c3)CC2)C(C)(C)C)cc1` [Example 29, (2S,4R)-1-[(2S)-2-[[10-[4-[[3-[[3-[3-amino-6-(2-hydroxyphenyl)pyridazin-4-yl]-3,8-diazabicyclo[3.2.1]octan-8-yl]methyl]phenyl]methyl]piperazin-1-yl]-10-oxo-decanoyl]amino]-3,3-dimethyl-butanoyl]-4-hydroxy-N-[[4-(4-methylthiazol-5-yl)phenyl]methyl]pyrrolidine-2-carboxamide], the maximum response (Emax) worked out at 30% and the DC50 is 1110 nM.

Take `Cc1ncsc1-c1ccc(CNC(=O)[C@@H]2C[C@@H](O)CN2C(=O)[C@H](C(C)C)N2Cc3ccccc3C2=O)c(OCCCCCCCCCCC(=O)N2CCN(CCOc3cccc(N4C5CCC4CN(c4cc(-c6ccccc6O)nnc4N)C5)c3)CC2)c1` [Example 30, (2S,4R)-N-[[2-[11-[4-[2-[3-[3-[3-amino-6-(2-hydroxyphenyl)pyridazin-4-yl]-3,8-diazabicyclo[3.2.1]octan-8-yl]phenoxy]ethyl]piperazin-1-yl]-11-oxo-undecoxy]-4-(4-methylthiazol-5-yl)phenyl]methyl]-4-hydroxy-1-[(2S)-3-methyl-2-(1-oxoisoindolin-2-yl)butanoyl]pyrrolidine-2-carboxamide]: the Emax stood at 65% and the DC50 was determined as 1160 nM.

For `Cc1ncsc1-c1ccc(CNC(=O)[C@@H]2C[C@@H](O)CN2C(=O)[C@@H](NC(=O)CCCCCCCCC(=O)N2CCN(CCOc3cccc(C#Cc4cc(-c5ccccc5O)nnc4N)c3)CC2)C(C)(C)C)cc1` [Example 35, (2S,4R)-1-[(2S)-2-[[10-[4-[2-[3-[2-[3-amino-6-(2-hydroxyphenyl)pyridazin-4-yl]ethynyl]phenoxy]ethyl]piperazin-1-yl]-10-oxo-decanoyl]amino]-3,3-dimethyl-butanoyl]-4-hydroxy-N-[[4-(4-methylthiazol-5-yl)phenyl]methyl]pyrrolidine-2-carboxamide], the maximum response (Emax) was 39% and the DC50 was 952 nM.

Take `Cc1ncsc1-c1ccc(CNC(=O)[C@@H]2C[C@@H](O)CN2C(=O)[C@@H](NC(=O)CCCCCCCCCCC(=O)N2CCN(CCOc3cccc(C#Cc4cc(-c5ccccc5O)nnc4N)c3)CC2)C(C)(C)C)cc1` [Example 36, (2S,4R)-1-[(2S)-2-[[12-[4-[2-[3-[2-[3-amino-6-(2-hydroxyphenyl)pyridazin-4-yl]ethynyl]phenoxy]ethyl]piperazin-1-yl]-12-oxo-dodecanoyl]amino]-3,3-dimethyl-butanoyl]-4-hydroxy-N-[[4-(4-methylthiazol-5-yl)phenyl]methyl]pyrrolidine-2-carboxamide]: the Emax was found to be 49% and the DC50 came to 838 nM.

In the case of `Cc1ncsc1-c1ccc([C@H](C)NC(=O)[C@@H]2C[C@@H](O)CN2C(=O)[C@@H](NC(=O)CCCCCCCCCC(=O)N2CCN(CCOc3cccc(N4C5CCC4CN(c4cc(-c6ccccc6O)nnc4N)C5)c3)CC2)C(C)(C)C)cc1` [Example 37, (2S,4R)-1-[(2S)-2-[[11-[4-[2-[3-[3-[3-amino-6-(2-hydroxyphenyl)pyridazin-4-yl]-3,8-diazabicyclo[3.2.1]octan-8-yl]phenoxy]ethyl]piperazin-1-yl]-11-oxo-undecanoyl]amino]-3,3-dimethyl-butanoyl]-4-hydroxy-N-[(1S)-1-[4-(4-methylthiazol-5-yl)phenyl]ethyl]pyrrolidine-2-carboxamide], the Emax worked out at 29% and the DC50 worked out at 73 nM.

Take `Cc1ncsc1-c1ccc([C@H](C)NC(=O)[C@@H]2C[C@@H](O)CN2C(=O)[C@@H](NC(=O)CCC(=O)N2CCOC3(CCN(c4cc(-c5ccccc5O)nnc4N)CC3)C2)C(C)(C)C)cc1` [Example 42, (2S,4R)-1-[(2S)-2-[[4-[9-[3-amino-6-(2-hydroxyphenyl)pyridazin-4-yl]-1-oxa-4,9-diazaspiro[5.5]undecan-4-yl]-4-oxo-butanoyl]amino]-3,3-dimethyl-butanoyl]-4-hydroxy-N-[(1S)-1-[4-(4-methylthiazol-5-yl)phenyl]ethyl]pyrrolidine-2-carboxamide]: the maximal effect (Emax) came to 71% and the DC50 was 561 nM.
